According to the supplement of paper PMC10331698:
± gives the standard deviation of the averaged measurements.

Experiments:
Experiment in all cases: level (log10 ratio to DMSO vehicle control); higher = higher biomarker level / cell amount than vehicle control
Conditions in all cases: in DMSO
[1] = compound: O=S(=O)(O)C(F)(F)C(F)(F)C(F)(F)C(F)(F)C(F)(F)C(F)(F)C(F)(F)C(F)(F)C(F)(F)C(F)(F)F [Sodium perfluorodecanesulfonate]
Method: (§1)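 BioMAP Diversity Plus panel of 12 human primary cell co-culture systems (3C, 4H, LPS, SAg, BT, BF4T, BE3C, CASM3C, HDF3CGF, KF3CT, MyoF, Mphg). Compounds were added 1 h before stimulation and left for 24 h (MyoF 48 h; BT 72 h for soluble read-outs or 6 d for IgG). Biomarkers were read by ELISA, cytotoxicity by SRB, PBMC viability and proliferation by Alamar Blue. Each well value was divided by the mean of 8 DMSO control wells on the same plate and log10 transformed; duplicate blinded samples were tested at 4 concentrations.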

[2] = compound: FC(F)(F)C(F)(F)CNCC(F)(F)C(F)(F)F [Bis(1H,1H-perfluoropropyl)amine]
Method: as §1

[3] = compound: C=C(C)C(=O)OCCC(F)(F)C(F)(F)C(F)(F)C(F)(F)C(F)(F)C(F)(F)F [6:2 Fluorotelomer methacrylate]
Method: as §1

[4] = compound: O=S(=O)(Cl)C(F)(F)C(F)(F)C(F)(F)C(F)(F)C(F)(F)C(F)(F)C(F)(F)C(F)(F)F [Perfluoro-1-octanesulfonyl chloride]
Method: as §1

[5] = compound: FC(F)(F)C(F)(F)C(F)(F)C(F)(F)C(F)(F)C(F)(F)CC1CO1 [3-(Perfluorohexyl)-1,2-epoxypropane]
Method: as §1

[6] = compound: NS(=O)(=O)C(F)(F)C(F)(F)C(F)(F)C(F)(F)C(F)(F)C(F)(F)F [Perfluorohexanesulfonamide]
Method: as §1

| Test System | level (log10) ([1]; 1500 nM) | level (log10) ([1]; 4400 nM) | level (log10) ([1]; 13000 nM) | level (log10) ([1]; 40000 nM) | level (log10) ([2]; 6700 nM) | level (log10) ([2]; 20000 nM) | level (log10) ([2]; 60000 nM) | level (log10) ([3]; 6700 nM) | level (log10) ([3]; 20000 nM) | level (log10) ([3]; 60000 nM) | level (log10) ([4]; 6700 nM) | level (log10) ([4]; 20000 nM) | level (log10) ([4]; 60000 nM) | level (log10) ([5]; 6700 nM) | level (log10) ([5]; 20000 nM) | level (log10) ([5]; 60000 nM) | level (log10) ([6]; 6700 nM) | level (log10) ([6]; 20000 nM) | level (log10) ([6]; 60000 nM) |
| --- | --- | --- | --- | --- | --- | --- | --- | --- | --- | --- | --- | --- | --- | --- | --- | --- | --- | --- | --- |
| HDF3CGF:CXCL8/IL-8 | -0.0055 ± 0.0035 | -0.0095 ± 0.005 | 0.0165 ± 0.016 | 0.023 ± 0.0028 | -0.003 | -0.011 ± 0.0042 | 0.007 ± 0.016 | 0.007 ± 0.018 | 0.0045 ± 0.015 | 0.0035 ± 0.011 | -0.008 ± 0.0014 | 0.0065 ± 0.0092 | 0.0265 ± 0.012 | -0.0175 ± 0.0035 | 0.005 ± 0.0028 | 0.0145 ± 0.0064 | 0.0015 ± 0.0021 | 0.0035 ± 0.0021 | 0.017 ± 0.013 |
| lMphg:CCL2/MCP-1 | 0.022 ± 0.0028 | -0.0035 ± 0.013 | 0.0135 ± 0.005 | 0.0225 ± 0.026 | 0.0015 ± 0.0035 | 0.001 ± 0.013 | -0.02 ± 0.042 | -0.005 ± 0.0085 | -0.009 ± 0.0014 | 0.004 ± 0.0071 | 0.0175 ± 0.0092 | 0.0255 ± 0.0092 | 0.032 ± 0.0028 | -0.009 ± 0.031 | -0.0255 ± 0.026 | 0.0025 ± 0.044 | -0.018 ± 0.054 | -0.053 ± 0.017 | -0.123 ± 0.054 |
| HDF3CGF:TIMP-2 | -0.026 ± 0.11 | 0.0395 ± 0.0035 | 0.005 ± 0.052 | -0.085 ± 0.089 | -0.005 ± 0.017 | -0.0085 ± 0.033 | 0.022 ± 0.0014 | 0.0065 ± 0.087 | 0.018 ± 0.085 | 0.022 ± 0.082 | -0.002 ± 0.048 | -0.0185 ± 0.013 | -0.0205 ± 0.0021 | 0.0235 ± 0.012 | 0.0065 ± 0.00071 | -0.006 ± 0.02 | 0.012 ± 0.023 | 0.0005 ± 0.0021 | -0.157 ± 0.0057 |
| KF3CT:CXCL8/IL-8 | 0 ± 0.044 | -0.0125 ± 0.0064 | -0.0175 ± 0.012 | -0.0105 ± 0.005 | -0.0005 ± 0.005 | -0.0065 ± 0.0092 | 0.0115 ± 0.015 | -0.004 ± 0.0057 | 0.0085 ± 0.011 | -0.007 ± 0.011 | 0.006 ± 0.0042 | 0.0095 ± 0.016 | 0.0615 ± 0.025 | 0.012 ± 0.018 | 0.0175 ± 0.022 | 0.022 ± 0.0042 | -0.039 ± 0.023 | -0.0345 ± 0.0092 | -0.0395 ± 0.03 |
| HDF3CGF:CXCL10/IP-10 | -0.001 ± 0.027 | -0.065 ± 0.0042 | -0.025 ± 0.02 | 0.012 | 0.011 ± 0.011 | -0.001 ± 0.0042 | 0.0265 ± 0.025 | -0.0075 ± 0.016 | -0.019 ± 0.021 | -0.0225 ± 0.026 | -0.0115 ± 0.0021 | -0.046 ± 0.021 | -0.0365 ± 0.018 | 0.005 ± 0.031 | 0.012 ± 0.034 | -0.0095 ± 0.037 | -0.02 ± 0.037 | -0.059 ± 0.037 | -0.185 ± 0.069 |
| KF3CT:IL-1alpha | 0.0125 ± 0.018 | -0.0295 ± 0.005 | -0.0545 ± 0.0035 | -0.045 ± 0.02 | 0.0045 ± 0.022 | -0.013 ± 0.0014 | 0.0005 ± 0.046 | -0.033 ± 0.025 | -0.0395 ± 0.029 | -0.0335 ± 0.026 | -0.013 ± 0.0085 | -0.03 ± 0.02 | -0.055 ± 0.0014 | -0.0185 ± 0.0078 | 0.0085 ± 0.018 | 0.0015 ± 0.0021 | 0.026 ± 0.025 | 0.03 ± 0.028 | 0.052 ± 0.02 |
| lMphg:M-CSF | -0.0215 ± 0.0035 | -0.0255 ± 0.03 | -0.013 ± 0.021 | 0.0255 ± 0.028 | -0.007 ± 0.011 | -0.0145 ± 0.022 | 0.0165 ± 0.021 | 0.0215 ± 0.0064 | -0.016 ± 0.0071 | -0.0125 ± 0.025 | -0.023 ± 0.042 | -0.012 ± 0.031 | 0.0215 ± 0.04 | -0.01 ± 0.0071 | -0.0305 ± 0.0078 | -0.0145 ± 0.021 | -0.051 ± 0.072 | -0.113 ± 0.037 | -0.119 ± 0.051 |
| CASM3C:IL-6 | -0.013 ± 0.018 | -0.053 ± 0.05 | 0.055 ± 0.0099 | 0.108 ± 0.018 | -0.0335 ± 0.047 | -0.035 ± 0.02 | 0.0065 ± 0.023 | -0.0405 ± 0.035 | -0.046 ± 0.0042 | 0.005 ± 0.0028 | -0.009 ± 0.03 | -0.024 ± 0.02 | 0.015 ± 0.044 | -0.0375 ± 0.025 | -0.0335 ± 0.012 | 0.001 ± 0.089 | -0.0145 ± 0.013 | -0.054 ± 0.0099 | -0.0495 ± 0.044 |
| 3C:CD106/VCAM-1 | -0.0035 ± 0.0035 | 0.0055 ± 0.011 | -0.016 ± 0.013 | 0.0065 ± 0.0078 | -0.016 ± 0.027 | -0.027 ± 0.037 | -0.0025 ± 0.03 | -0.0265 ± 0.026 | -0.029 ± 0.037 | -0.0185 ± 0.043 | 0.008 ± 0.013 | 0.028 ± 0.0099 | 0.0325 ± 0.013 | -0.0145 ± 0.018 | -0.033 ± 0.025 | -0.0395 ± 0.011 | -0.008 ± 0.0014 | -0.0125 ± 0.0092 | -0.025 ± 0.016 |
| BE3C:MMP-1 | -0.0225 ± 0.053 | 0.0585 ± 0.059 | 0.239 ± 0.011 | 0.153 ± 0.0071 | -0.0145 ± 0.026 | -0.014 ± 0.011 | 0.0185 ± 0.049 | 0.0525 ± 0.0035 | 0.046 ± 0.0057 | 0.0375 ± 0.0078 | 0.075 ± 0.03 | 0.27 ± 0.012 | -0.178 ± 0.047 | 0.022 ± 0.075 | 0.0255 ± 0.061 | 0.0655 ± 0.03 | 0.0255 ± 0.015 | 0.0645 ± 0.0035 | 0.195 ± 0.02 |
| CASM3C:CXCL9/MIG | 0.0195 ± 0.036 | -0.0105 ± 0.011 | 0.0285 ± 0.043 | 0.0875 ± 0.043 | 0.0175 ± 0.025 | 0.006 ± 0.0014 | -0.0065 ± 0.069 | 0.011 ± 0.016 | 0.0255 ± 0.012 | 0.041 ± 0.0099 | 0.0015 ± 0.052 | 0.013 ± 0.035 | 0.0735 ± 0.033 | -0.014 ± 0.025 | -0.007 ± 0.016 | 0.0005 ± 0.026 | 0.003 ± 0.0042 | -0.0065 ± 0.005 | -0.003 ± 0.023 |
| HDF3CGF:CXCL11/I-TAC | -0.0205 ± 0.029 | -0.0225 ± 0.0092 | 0.0785 ± 0.013 | 0.092 ± 0.0042 | -0.0065 ± 0.0092 | -0.0045 ± 0.013 | 0.0195 ± 0.035 | -0.022 ± 0.021 | -0.014 ± 0.0014 | -0.018 ± 0.013 | -0.038 ± 0.0028 | -0.0315 ± 0.018 | -0.0145 ± 0.022 | 0.01 ± 0.016 | 0.015 ± 0.0028 | -0.003 ± 0.027 | 0.0075 ± 0.018 | -0.028 ± 0.011 | -0.189 ± 0.033 |
| BE3C:uPA | -0.027 ± 0.0057 | -0.032 ± 0.034 | -0.019 ± 0.017 | -0.051 ± 0.027 | -0.0155 ± 0.0064 | -0.0185 ± 0.0092 | -0.003 ± 0.013 | 0.0055 ± 0.0064 | 0.0085 ± 0.0092 | 0.019 ± 0.021 | -0.006 ± 0.0028 | 0.0085 ± 0.0064 | -0.133 ± 0.059 | -0.005 ± 0.014 | -0.006 ± 0.0042 | 0.007 ± 0.02 | -0.0115 ± 0.032 | 0.0025 ± 0.037 | -0.0365 ± 0.037 |
| LPS:CD141/Thrombomodulin | -0.0315 ± 0.0064 | 0.0015 ± 0.046 | -0.021 ± 0.0071 | 0.071 ± 0.047 | 0.046 ± 0.088 | 0.0005 ± 0.14 | -0.0095 ± 0.096 | -0.039 ± 0.025 | -0.0465 ± 0.04 | -0.091 ± 0.017 | -0.035 ± 0.025 | -0.028 ± 0.034 | 0.083 ± 0.014 | -0.0405 ± 0.0035 | -0.038 ± 0.0099 | -0.0545 ± 0.0064 | -0.0155 ± 0.0092 | -0.017 ± 0.017 | -0.0095 ± 0.028 |
| BE3C:tPA | 0.12 ± 0.017 | 0.186 ± 0.0028 | 0.191 ± 0.013 | -0.103 ± 0.0057 | -0.0285 ± 0.0021 | -0.0685 ± 0.011 | -0.0225 ± 0.036 | -0.0525 ± 0.036 | -0.053 ± 0.018 | -0.056 ± 0.013 | 0.01 ± 0.047 | 0 ± 0.04 | -0.359 ± 0.11 | 0.0085 ± 0.019 | -0.014 ± 0.014 | 0.0325 ± 0.018 | -0.0075 ± 0.035 | 0.0005 ± 0.016 | -0.245 ± 0.059 |
